Data on seven compounds can be found in US9359372B2, “Hexahydrodibenzo[a,g]quinolizine compound, preparation method thereof, pharmaceutical composition and use thereof” (SHANGHAI INSTITUTE OF MATERIA MEDICA, CHINESE ACADEMY OF …, priority 2011, dated 2016).

Several values for one entry are separate records, joined by “and”; a condition that tells them apart may be missing. Identical values can stand only once.

One data set addresses dopamine D1 receptor (Macaca mulatta (Rhesus macaque), UniProt O77680). The data set is described as follows: Affinity on dopamine D1 receptor, competition with [3H] SCH23390. Format: binding. Set-up: D1 receptor inhibition ratio (%): concentration or dose not given beside the values. On the procedure:
(§1) (1). Determination of the Affinity of Hexahydrodibenzo[a,g]Quinolizine Compound of General Formula I and Derivatives Thereof on Dopamine D1, Dopamine D2, 5-HT1A, and 5-HT2A Receptor.
(§2) 1) The Experimental Method
(§3) Different concentrations (10^−5 M-10^−11 M) of the compound of the invention and corresponding isotope receptor ligand as well as receptor protein were loaded into the reaction tube and incubated in 30° C. water bath for 60 minutes. The reaction was terminated in a refrigerator. The reaction mixture was put in a Millipore filter (millipore) cell sample collector, filtered through suction filtration using GF/C glass fiber filter paper, and dried. The resulting sample was placed into 0.5 mL tube. 500 μL liquid scintillation fluid was added and intensity of radioactivity was determined by counting.
(§4) (1) Construction of receptor and materials for cell culture: Escherichia coli. DH5α strain; insect virus transfer vector pVL1393 plasmid; BaculoGold linear Chinese baculovirus DNA, purchased from ParMingen company; mkD1RcDNA; rD2R cDNA; various restriction endonucleases, TaqDNA polymerase, T4 ligase, etc., LB medium; insect cell culture TNM-FH.
(§5) (2) the Experimental Materials for Receptor Binding
(§6) Firstly, the above […] are dissolved in DMSO and then diluted with double distilled water to the appropriate concentration (10^−5 M-10^−11 M).
(§7) (+) Butaclamo purchased from RBI company, GF/C glass fiber filter paper purchased from Whatman Co., scintillation fluid (dopamine D1, D2 receptors)/liposoluble scintillation fluid (5-HT1A, 5-HT2A receptor), Beckman LS-6500 multi-function liquid scintillation counter.

Another data set concerns the target D2 dopamine receptor (Rattus norvegicus (Rat), UniProt P61169). As to the kind of experiment: Affinity on dopamine D2 receptor, competition with [3H] Spiperone. It counts as binding. Set-up: D2 receptor inhibition ratio (%): concentration or dose not given beside the values. On the procedure: as §1, §2, §3, §4, §5, §6, §7
Data set [1] in a line: In vivo pharmacokinetic experiment of rats (gavage and intravenous). Particulars: rat. Also on record: species or system SD rats. The method, then:
Pharmacokinetic properties of Compound DC037029 in rats were preliminarily studied in this experiment. After the tested compound was delivered to rats by intravenous administration and intragastric administration, respectively, the whole blood samples were collected at different time point and the plasma was separated. The concentration of compound in plasma was determined by liquid chromatography-tandem mass spectrometry.
Six healthy male SD rats with the weight of 200-220 g were randomly divided into 2 groups, each of which has three rats. The rats in each group were administrated with the tested compound by gavage or intravenous injection, respectively.
The compound was dissolved in 10% DMSO/10% Tween/[…].
The rats are fasted for 12 h and can drink water ad libitum before test. 2 h after dosing, the rats ate all together. The time point for collecting blood samples and the sample processing are listed as follows.
Intragastric administration time: 0.25, 0.5, 1.0, 2.0, 3.0, 5.0, 7.0, 9.0 and 24 h after administration.
Intravenous administration time: 5 min, 0.25, 0.5, 1.0, 2.0, 3.0, 5.0, 7.0, 9.0 and 24 h after administration. At above time point, 0.3 ml venous blood was taken from retrobulbar venous plexus of the rat and loaded into heparinization tube. After centrifuged at 1000 rpm for 5 min, the plasma was separated and frozen at −20° C. in a refrigerator.

The mark [2] stands for this setting: gavage 20 mg/kg, individual animals.
[3] abbreviates: intravenous injection 10 mg/kg, average.
[4] abbreviates: intravenous injection 10 mg/kg, individual animals.

D2 dopamine receptor, sequence (P61169 whole entry): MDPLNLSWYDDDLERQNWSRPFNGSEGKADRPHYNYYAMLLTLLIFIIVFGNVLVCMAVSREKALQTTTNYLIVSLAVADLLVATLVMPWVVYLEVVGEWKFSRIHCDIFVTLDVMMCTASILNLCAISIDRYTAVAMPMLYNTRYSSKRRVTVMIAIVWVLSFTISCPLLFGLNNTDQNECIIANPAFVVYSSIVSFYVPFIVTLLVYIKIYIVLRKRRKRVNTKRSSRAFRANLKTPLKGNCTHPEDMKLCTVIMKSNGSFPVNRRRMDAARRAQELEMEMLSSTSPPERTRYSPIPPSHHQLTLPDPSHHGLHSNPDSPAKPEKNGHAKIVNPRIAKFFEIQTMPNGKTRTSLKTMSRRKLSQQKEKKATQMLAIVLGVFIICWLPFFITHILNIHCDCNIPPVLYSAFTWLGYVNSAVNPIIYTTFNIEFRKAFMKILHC
dopamine D1 receptor, sequence (O77680 whole entry): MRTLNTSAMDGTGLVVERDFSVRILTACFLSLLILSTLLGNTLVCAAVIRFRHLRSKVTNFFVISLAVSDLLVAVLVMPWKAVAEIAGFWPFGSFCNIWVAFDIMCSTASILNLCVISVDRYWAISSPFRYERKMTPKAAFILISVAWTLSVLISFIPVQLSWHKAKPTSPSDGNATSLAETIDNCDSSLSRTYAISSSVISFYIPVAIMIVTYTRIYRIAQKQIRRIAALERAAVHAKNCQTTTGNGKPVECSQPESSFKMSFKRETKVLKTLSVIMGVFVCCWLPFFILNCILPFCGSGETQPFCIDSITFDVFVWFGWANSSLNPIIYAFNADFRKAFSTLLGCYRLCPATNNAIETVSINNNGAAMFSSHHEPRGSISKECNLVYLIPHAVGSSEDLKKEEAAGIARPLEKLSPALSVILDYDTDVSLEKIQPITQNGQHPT

For `COc1cc2c(cc1OC)[C@@H]1Cc3cc4c(cc3[C@H](C)N1CC2)OCO4` [DC037020, (8S,14S)-2,3-bimethoxy-8-methyl-10,11-methylenedioxy-5,8,13,13a-tetrahydro-6H-dibenzo[a,g]quinolizine], the “D1 receptor inhibition ratio (%)” value on dopamine D1 receptor worked out at 47.3%. Besides, the “D2 receptor inhibition ratio (%)” value on D2 dopamine receptor came out at 57.1%.
For orientation: IC50 means the midpoint of a concentration-inhibition curve. Usually Ki stands for a measure of affinity in units of concentration, obtained from inhibition or displacement. In the case of `COc1ccc2c(c1)CCN1Cc3c(cc(OC)c(OC)c3OC)CC21` (racemic) [DC037007, (±)-3,9,10,11-tetramethoxy-5,8,13,13a-tetrahydro-6H-dibenzo[a,g]quinolizine], on dopamine D1 receptor, the “D1 receptor inhibition ratio (%)” value turned out to be 87.65%, the IC50 stood at 2030 nM and the Ki came to 1000 nM. Also, the “D2 receptor inhibition ratio (%)” value at D2 dopamine receptor stood at 49.05%.
`COc1cc2c(cc1OC)CN1CCc3cc4c(cc3C1C2)OCO4` (racemic) [DC037021, (±)-2,3-methylenedioxy-10,11-bimethoxy-5,8,13,13a-tetrahydro-6H-dibenzo[a,g]quinolizine]: at dopamine D1 receptor, the “D1 receptor inhibition ratio (%)” value was 56.5%. Besides, the “D2 receptor inhibition ratio (%)” value on D2 dopamine receptor worked out at 44.5%.
With `COc1cc2c(cc1OC)C1Cc3cc4c(cc3CN1CC2)OCO4` (racemic) [DC037014, (±)-2,3-bimethoxy-10,11-methylenedioxy-5,8,13,13a-tetrahydro-6H-dibenzo[a,g]quinolizine], at dopamine D1 receptor, the “D1 receptor inhibition ratio (%)” value is recorded as 58.2%. The “D2 receptor inhibition ratio (%)” value on D2 dopamine receptor amounted to 25.8%.
`COc1cc2c(cc1OC)C1Cc3cc(O)c(O)cc3CN1CC2` (racemic) [DC037022, (±)-2,3-bimethoxy-10,11-bihydroxy-5,8,13,13a-tetrahydro-6H-dibenzo[a,g]quinolizine]: at dopamine D1 receptor, the “D1 receptor inhibition ratio (%)” value was found to be 89.0%, the IC50 was 1010 nM and the Ki was 498 nM. Moreover, at D2 dopamine receptor, the “D2 receptor inhibition ratio (%)” value was determined as 10.6%.
As for `COc1ccc(OC)c2c1C[C@H]1c3cc4c(cc3CCN1C2)OCO4` [DC037013, S-(−)-2,3-methylenedioxy-9,12-bimethoxy-5,8,13,13a-tetrahydro-6H-dibenzo[a,g]quinolizine], on dopamine D1 receptor, the IC50 was 47.9 nM and the Ki is 23.6 nM.
As a reminder, the Cmax is the highest concentration seen after dosing. For orientation: MRT means a mean duration of stay, worked out from the concentration-time curve. By Tmax is commonly meant the time from dosing to the highest level. With `COc1cc2c(cc1O)[C@@H]1Cc3cc4c(cc3CN1CC2)OCO4` [DC037029, S-(−)-2-hydroxy-3-methoxy-10,12-methylenedioxy-5,8,13,13a-tetrahydro-6H-dibenzo[a,g]quinolizine], the half-maximal inhibitory concentration (IC50) on dopamine D1 receptor was found to be 8.19 nM. Moreover, the Ki at dopamine D1 receptor came out at 4.2 nM. The “affinity on dopamine D1 receptor (in words)” value on dopamine D1 receptor (summary of the tables) was “strong affinity”. In addition, the “F (absolute bioavailability)” value in data set [1] (gavage 20 mg/kg) came out at 34.2%. The Plasma concentration in data set [1] (gavage 20 mg/kg, 0.25 h, average) is 392 ng/mL; in data set [1] (gavage 20 mg/kg, 0.25 h, individual animals), 268 ng/mL and 416 ng/mL and 493 ng/mL; in data set [1] (gavage 20 mg/kg, 0.5 h, average) it was 445 ng/mL; in data set [1] (gavage 20 mg/kg, 0.5 h, individual animals), 289 ng/mL and 494 ng/mL and 553 ng/mL; in data set [1] (gavage 20 mg/kg, 1.0 h, average) it was 420 ng/mL; in data set [1] (gavage 20 mg/kg, 1.0 h, individual animals) it was 230 ng/mL and 455 ng/mL and 575 ng/mL. In addition, the Plasma concentration in data set [1] (gavage 20 mg/kg, 2.0 h, average) is 345 ng/mL; in data set [1] (gavage 20 mg/kg, 2.0 h, individual animals) it was 218 ng/mL and 326 ng/mL and 492 ng/mL; in data set [1] (gavage 20 mg/kg, 3.0 h, average) it was 289 ng/mL; in data set [1] (gavage 20 mg/kg, 3.0 h, individual animals), 231 ng/mL and 207 ng/mL and 431 ng/mL; in data set [1] (gavage 20 mg/kg, 5.0 h, average), 266 ng/mL; in data set [1] (gavage 20 mg/kg, 5.0 h, individual animals) it was 233 ng/mL and 236 ng/mL and 330 ng/mL. Further, the Plasma concentration in data set [1] (gavage 20 mg/kg, 7.0 h, average) is 122 ng/mL; in data set [1] (gavage 20 mg/kg, 7.0 h, individual animals), 169 ng/mL and 80.3 ng/mL and 118 ng/mL; in data set [1] (gavage 20 mg/kg, 9.0 h, average), 82.2 ng/mL; in data set [1] (gavage 20 mg/kg, 9.0 h, individual animals), 91.9 ng/mL and 41.3 ng/mL and 113 ng/mL; in data set [1] (gavage 20 mg/kg, 24.0 h, average), 4.28 ng/mL; in data set [1] (gavage 20 mg/kg, 24.0 h, individual animals), 9.67 ng/mL and 1.26 ng/mL and 1.90 ng/mL. Besides, the Plasma concentration in data set [1] (intravenous injection 10 mg/kg, 0.083 h, average) is 4194 ng/mL; in data set [1] (intravenous injection 10 mg/kg, 0.083 h, individual animals), 4576 ng/mL and 4169 ng/mL and 3837 ng/mL; in data set [1] (intravenous injection 10 mg/kg, 0.25 h, average) it was 2883 ng/mL; in data set [1] (intravenous injection 10 mg/kg, 0.25 h, individual animals) it was 3010 ng/mL and 2766 ng/mL and 2874 ng/mL; in data set [1] (intravenous injection 10 mg/kg, 0.5 h, average) it was 1942 ng/mL; in data set [1] (intravenous injection 10 mg/kg, 0.5 h, individual animals) it was 2055 ng/mL and 1788 ng/mL and 1984 ng/mL. Further, the Plasma concentration in data set [1] (intravenous injection 10 mg/kg, 1.0 h, average) was 1207 ng/mL; in data set [1] (intravenous injection 10 mg/kg, 1.0 h, individual animals), 1211 ng/mL and 1047 ng/mL and 1365 ng/mL; in data set [1] (intravenous injection 10 mg/kg, 2.0 h, average), 571 ng/mL; in data set [1] (intravenous injection 10 mg/kg, 2.0 h, individual animals), 590 ng/mL and 527 ng/mL and 596 ng/mL; in data set [1] (intravenous injection 10 mg/kg, 3.0 h, average) it was 255 ng/mL; in data set [1] (intravenous injection 10 mg/kg, 3.0 h, individual animals), 228 ng/mL and 294 ng/mL and 243 ng/mL. For the same compound, the Plasma concentration was 75.3 ng/mL in data set [1] (intravenous injection 10 mg/kg, 5.0 h, average); 65.0 ng/mL and 83.7 ng/mL and 77.2 ng/mL in data set [1] (intravenous injection 10 mg/kg, 5.0 h, individual animals); 20.7 ng/mL in data set [1] (intravenous injection 10 mg/kg, 7.0 h, average); 19.2 ng/mL and 21.1 ng/mL and 21.7 ng/mL in data set [1] (intravenous injection 10 mg/kg, 7.0 h, individual animals); 8.00 ng/mL in data set [1] (intravenous injection 10 mg/kg, 9.0 h, average); 7.31 ng/mL and 9.26 ng/mL and 7.41 ng/mL in data set [1] (intravenous injection 10 mg/kg, 9.0 h, individual animals). Besides, the Plasma concentration is 1.76 ng/mL in data set [1] (intravenous injection 10 mg/kg, 24.0 h, average); 2.26 ng/mL and 1.61 ng/mL and 1.41 ng/mL in data set [1] (intravenous injection 10 mg/kg, 24.0 h, individual animals). Moreover, the AUC0-t in data set [1] (gavage 20 mg/kg, average) is 2867 ± 798 ng·h/mL and 2867 ng·h/mL; in data set [1] (setting [2]), 3771 ng·h/mL and 2570 ng·h/mL and 2260 ng·h/mL; in data set [1] (setting [3]), 4196 ± 141 ng·h/mL and 4196 ng·h/mL; in data set [1] (setting [4]) it was 4262 ng·h/mL and 4292 ng·h/mL and 4034 ng·h/mL. The “AUC0-∞” value in data set [1] (gavage 20 mg/kg, average) was 2891 ng·h/mL; in data set [1] (setting [2]), 3779 ng·h/mL and 2629 ng·h/mL and 2265 ng·h/mL; in data set [1] (setting [3]), 4210 ng·h/mL; in data set [1] (setting [4]) it was 4272 ng·h/mL and 4313 ng·h/mL and 4046 ng·h/mL. For the same compound, the Cmax in data set [1] (gavage 20 mg/kg, average) was 453 ± 147 ng/mL and 453 ng/mL; in data set [1] (setting [2]) it was 575 ng/mL and 289 ng/mL and 494 ng/mL. Further, the mean residence time MRT is 5.04 h in data set [1] (gavage 20 mg/kg, average); 4.67 h and 6.45 h and 4.00 h in data set [1] (setting [2]); 1.47 h in data set [1] (setting [3]); 1.42 h and 1.46 h and 1.53 h in data set [1] (setting [4]). Further, the time of peak concentration (Tmax) in data set [1] (gavage 20 mg/kg, average) was 0.67 ± 0.29 h and 0.67 h; in data set [1] (setting [2]) it was 1.00 h and 0.50 h (2×). The t1/2 in data set [1] (gavage 20 mg/kg, average) is 3.26 ± 0.82 h and 3.26 h; in data set [1] (setting [2]), 2.70 h and 4.20 h and 2.89 h; in data set [1] (setting [3]), 5.44 ± 0.85 h and 5.44 h; in data set [1] (setting [4]) it was 4.88 h and 6.42 h and 5.01 h. In addition, the “CLz (plasma clearance rate CL)” value in data set [1] (setting [3]) is 39.7 ± 1.3 mL/min/kg and 39.7 mL/min/kg. Also, the “Vss (steady state distribution volume)” value in data set [1] (setting [3]) is 3.49 ± 0.24 L/kg and 3.49 L/kg. For the same compound, the CLz in data set [1] (setting [4]) was 39 mL/min/kg and 38.7 mL/min/kg and 41.2 mL/min/kg. For the same compound, the Vss in data set [1] (setting [4]) is 3.33 L/kg and 3.38 L/kg and 3.78 L/kg.
